Reference: PubChem BioAssay (NCI)
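These data come from cells grown in 96-well plates and exposed to compound for 48 hours at five concentrations. TGI denotes the concentration required for complete inhibition of growth.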

What was measured:
Test in all cases: growth of human tumour cells (NCI), 48 h
[1] = tested on: OVCAR-4 ovarian
[2] = tested on: RXF 393 renal
[3] = tested on: UO-31 renal
[4] = tested on: A549 NSCLC
[5] = tested on: UACC-62 melanoma
[6] = tested on: UACC-257 melanoma
[7] = tested on: HCT-15 colon
[8] = tested on: SW-620 colon
[9] = tested on: U251 CNS
[10] = tested on: XF 498 CNS
[11] = tested on: HL-60(TB) leukemia
[12] = tested on: TK-10 renal
[13] = tested on: HCC-2998 colon
[14] = tested on: 786-0 renal
[15] = tested on: CCRF-CEM leukemia
[16] = tested on: KM12 colon
[17] = tested on: DMS 273 small cell lung
[18] = tested on: M14 melanoma
[19] = tested on: KM20L2 colon
[20] = tested on: HT29 colon
[21] = tested on: OVCAR-5 ovarian
[22] = tested on: SNB-78 CNS
[23] = tested on: NCI-H460 lung
[24] = tested on: SK-MEL-28 melanoma
[25] = tested on: SK-MEL-5 melanoma
[26] = tested on: K-562 leukemia
[27] = tested on: ACHN renal
[28] = tested on: LOX IMVI melanoma
[29] = tested on: RPMI-8226 leukemia
[30] = tested on: OVCAR-3 ovarian
[31] = tested on: IGROV1 ovarian
[32] = tested on: LXFL 529 NSCLC
[33] = tested on: SK-OV-3 ovarian
[34] = tested on: HCT-116 colon
[35] = tested on: HOP-18 NSCLC
[36] = tested on: HOP-62 NSCLC
[37] = tested on: SNB-75 CNS
[38] = tested on: SF-295 CNS
[39] = tested on: HOP-92 NSCLC
[40] = tested on: DLD-1 colon
[41] = tested on: OVCAR-8 ovarian
[42] = tested on: SK-MEL-2 melanoma
[43] = tested on: NCI-H226 lung
[44] = tested on: CAKI-1 renal
[45] = tested on: EKVX NSCLC
[46] = tested on: COLO 205 colon
[47] = tested on: SNB-19 CNS
[48] = tested on: M19-MEL melanoma
[49] = tested on: SN12C renal
[50] = tested on: MOLT-4 leukemia
[51] = tested on: MALME-3M melanoma
[52] = tested on: A498 renal
[53] = tested on: SR leukemia
[54] = tested on: SF-539 CNS
[55] = tested on: SF-268 CNS
[56] = tested on: NCI-H23 lung

Measured: TGI

C[C@@H](NC1CCCC[C@@H]1O)c1ccccc1 (stereo partly drawn)
not listed: [52] | [53] | [54] | [55] | [56]
> 100 µM: all other assays above

OC1CC(O)O[C@H](c2ccccc2)C1 (stereo partly drawn)
not listed: [9] | [10] | [33] | [42]
> 100 µM: all other assays above
